Assay results as given in US5118346A, “Biocidally active compounds” (Ciba-Geigy Corporation, priority 1988, dated 1992).
Like-named read-outs stand apart in the source and are kept apart here.

Legend:
Aspergillus niger = test: Determination of the MIC against fungi, agar incorporation test; assay type: cell-based; details: for MIC: read-out: MIC against fungi, strain A
Description: (§1) Strains: A) Aspergillus niger, B) Sacharomyces cerevisiae, C) Penicillium funiculosum, D) Chaetomium globosum, E) Aureobasidium pullulans and F) Coniophora puteana.
(§2) The investigation is carried out by the known agar incorporation test in malt extract agar (Merck). For the inhibition, the various compounds are in each case added in an amount such that concentrations of 10, 50 and 100 mg/1 result in the agar. The concentrations (mg/1) required for inhibiting the growth of the fungi (starting from fungus spores dripped on) are illustrated in Table 2.

Chaetomium globosum = test: as above; assay type: cell-based; details: for MIC: read-out: MIC against fungi, strain D
Description: as §1, §2

Coniophora puteana [1] = test: as above; assay type: cell-based; details: for MIC: read-out: MIC against fungi, strain F
Description: as §1, §2

Aureobasidium pullulans = test: as above; assay type: cell-based; details: for MIC: read-out: MIC against fungi, strain E
Description: as §1
(§3) The investigation is carried out by the known agar incorporation test in malt extract agar (Merck).

Penicillium funiculosum = test: as above; assay type: cell-based; details: for MIC: Talaromyces funiculosus, read-out: MIC against fungi, strain C
Description: as §1, §3

Sacharomyces cerevisiae = test: as above; assay type: cell-based; details: for MIC: read-out: MIC against fungi, strain B
Description: as §1, §3

barnacles = test: Anti-fouling paint exposure in the North Sea; details: 61/2 weeks, 0 = completely covered with growth, 10 = completely free
Description: (§4) To test the activity against growth on objects immersed in the sea, the compound according to Example 1 is incorporated into anti-fouling paints. An anti-fouling paint such as is known to the expert and which is based on vinyl chloride copolymer/rosin (2/1 part by weight) with a pigment volume concentration of about 40%, and a second anti-fouling paint of similar make-up but with a higher rosin content (vinyl chloride copolymer/rosin=1/1) are prepared. The compound according to Example 1 is incorporated into these paints, the paint is brushed onto specimen sheets and, after drying (10 days), the sheets are suspended in the North Sea. The corresponding paints but without adding of the product are exposed in the same way for comparison. On a rating scale of 0 (=completely covered with growth) to 10 (=completely free from growth), the following results are obtained after exposure for 61/2 weeks (growth by hydroids=HY; growth by barnacles=BA): […]

hydroids = test: Anti-fouling paint exposure in the North Sea; details: 61/2 weeks, 0 = completely covered with growth, 10 = completely free
Description: as §4

[2] = test system: mixture of algae Chlorella vulgaris, Chlorella spec. and Scenedesmus obliques; test: Algicide test in polyisobutylene roof sheeting; assay type: cell-based; details: for algae growth after 6 weeks: comparison film 2; for algae growth after 3 weeks: comparison film 2-3
Description: To test the activity against attack by algae, various concentrations, which can be seen from Table 3, of the compound according to Example 1 are incorporated into roof sheeting consisting of polyisobutylene. A roof sheeting without biocide is investigated as a comparison.
A 1 cm^2 piece of film from each test strip is kept in water for 5 days, in each case placed on an algae agar plate and inoculated with 0.1 ml of a 1+1+1 mixture of 14-day cultures of the algae Chlorella vulgaris and Chlorella spec. (isolated from damage cases in practice) and Scenedesmus obliques, which had been diluted 1/10 in saline.
After 3 weeks, the plates are evaluated and the films are placed in fresh agar and inoculated again.
Evaluation of the growth after 3 and 6 weeks under artificial light is performed in accordance with the following scheme.
2=partial growth on the film
3=growth up to the edge of the film
4=inhibiting aerola around the film <5 mm
5=inhibiting aerola around the film >5 mm
Example 19 is repeated, except that instead of the stated concentrations of compound according to Example 1 alone, a combination of 1% by weight of the compound according to Example 1 and 0.07% by weight of 2-methylthio-4-t-butylamino-6-cyclopropylamino-s-triazine is used.

Coniophora puteana [3] = test: Limit of activity against wood-destroying Basidiomycetes (EN 113); parameters: species or system Coniophora puteana (Schumacher ex Fries) Karsten; details: Coniophora puteana strain 91, pine, isopropanol/water (1:1), 16 weeks
Source text: (§5) Determination of the limit of the activity against wood-destroying Basidiomycetes bred on agar (in accordance with EN 113). The test methods described in this European Standard is a laboratory method which forms a basis for evaluation of the activity of a wood preservative against wood-destroying Basidiomycetes.
Coniophora puteana (Schumacher ex Fries) Karsten, strain FPRL 11E, for soft timbers=strain 91, Breeding of the strain and composition of the nutrient medium were as described in EN 113.
(§6) Solutions of isopropanol/water (1:1) containing 0.2%, 0.5%, 1%, 2% and 5% of active substance according to Example 1 are prepared.
(§7) The specimen woods of pine, nominal dimensions: 50 mm×25 mm×15 mm, are obtained and prepared as described in EN 113.
(§8) The impregnation according to EN 113 ensures complete thorough impregnation of the specimen woods with the wood preservative solution.
(§9) The amount of preservative absorbed is converted into weight per unit volume of the wood. […]
(§10) The limit of the activity of a wood preservative is determined by the two amounts of wood preservative which correspond to the lowest concentration which preserves the wood and the next lowest concentration in the series, at which the wood is no longer adequately preserved. […]

Poria placenta = test: as above; parameters: species or system Poria placenta (Fries) Cooke sensu. J. Eriksson; details: Poria placenta strain 96, pine, isopropanol/water (1:1), 16 weeks
Source text: as §5
Poria placenta (Fries) Cooke sensu. J. Eriksson, strain SPRL 280, for soft timbers=strain 96, Breeding of the strain and composition of the nutrient medium were as described in EN 113.
as §6, §7, §8, §9, §10

Gleophyllum trabeum = test: as above; parameters: species or system Gloeophyllum trabeum (Persoon ex Fries) Murrill; details: Gleophyllum trabeum strain 94, pine, 16 weeks
Source text: as §5
Gloeophyllum trabeum (Persoon ex Fries) Murrill, strain […], for soft timbers=strain 94, Breeding of the strain and composition of the nutrient medium were as described in EN 113.
as §6, §7, §8, §9, §10

wood-destroying fungi = test: Limit of activity against wood-destroying Basidiomycetes (EN 113), summary
Source text: as §5

[4] = malt extract agar, tested 10, 50, 100 mg/l
[5] = Penicillium funiculosum, malt extract agar, tested 10, 50, 100 mg/l
[6] = Sacharomyces cerevisiae, malt extract agar, tested 10, 50, 100 mg/l

Row | Compound | MIC (Aspergillus niger) | MIC (Aspergillus niger; [4]) | MIC (Chaetomium globosum; [4]) | MIC (Coniophora puteana [1]; [4]) | MIC (Aureobasidium pullulans; [4]) | MIC (Penicillium funiculosum; [5]) | MIC (Sacharomyces cerevisiae; [6]) | other results
1 | CCCCCCCCCCCC[P+](c1ccccc1)(c1ccccc1)c1ccccc1 [Example 3, Triphenyl-n-dodecylphosphonium tetrafluoborate] | 100 µg/mL |  |  |  |  |  |  | MIC (Chaetomium globosum): 50 µg/mL; MIC (Coniophora puteana [1]): 50 µg/mL; MIC (Aureobasidium pullulans): 10 µg/mL; MIC (Penicillium funiculosum): 10 µg/mL; MIC (Sacharomyces cerevisiae): 50 µg/mL
2 | CCCCCCCCCCCCCC[N+](CC)(CC)CC [Example 8] |  | 50 µg/mL | 50 µg/mL | 50 µg/mL |  |  |  | 
3 | CCCCCCCCCCCCCCCC[N+](CC)(CC)CC [Example 13] |  | 100 µg/mL | 100 µg/mL | 10 µg/mL | 50 µg/mL | 10 µg/mL | 100 µg/mL | 
4 | CCCCCCCCCCCCCC[N+](CCC)(CCC)CCC [Example 10] |  | 100 µg/mL | 50 µg/mL | 10 µg/mL | 10 µg/mL | 50 µg/mL | 100 µg/mL | 
5 | CCCCCCCCCCCCCC[P+](CCCC)(CCCC)CCCC [Example 2, Tri-n-butyl-n-tetradecylphosphonium hexafluophosphate] |  |  |  |  |  |  |  | MIC against fungi, strain A (Aspergillus niger; [4]): 100 µg/mL; MIC against fungi, strain D (Chaetomium globosum; [4]): 100 µg/mL; MIC against fungi, strain F (Coniophora puteana [1]; [4]): 100 µg/mL; MIC against fungi, strain E (Aureobasidium pullulans; [4]): 50 µg/mL; MIC against fungi, strain C (Penicillium funiculosum; [5]): 10 µg/mL; MIC against fungi, strain B (Sacharomyces cerevisiae; [6]): 10 µg/mL
6 | CCCCCCCCCCCC[N+](CC)(CC)CC [Example 7] |  | > 100 µg/mL | 100 µg/mL | 50 µg/mL | 50 µg/mL | 50 µg/mL | > 100 µg/mL | 
7 | CCCCCCCCCCCCCCCCCC[N+](CC)(CC)CC [Example 9] |  | > 100 µg/mL | 50 µg/mL | 50 µg/mL | 50 µg/mL | 50 µg/mL | > 100 µg/mL | 
8 | CCCCCCCCCCCCCC[N+](CCCC)(CCCC)CCCC [Example 5, Tri-n-butyl-n-tetradecylammonium tetrafluoborate] | 100 µg/mL |  | 50 µg/mL |  | 50 µg/mL | 50 µg/mL | 50 µg/mL | MIC (Coniophora puteana [1]): 100 µg/mL
9 | CCCCCCCCCCCC[N+](CCO)(CCO)Cc1ccccc1 [Example 6, Bis(hydroxyethyl)benzyl-n-dodecylammonium tetrafluoborate] | > 100 µg/mL |  | 50 µg/mL | 50 µg/mL | 10 µg/mL | 10 µg/mL | 50 µg/mL | 
10 | CCCCCCCCCCCC[N+]1(Cc2ccccc2)CCOCC1 [Example 14] | > 100 µg/mL |  |  | 50 µg/mL |  | 50 µg/mL |  | MIC (Chaetomium globosum): 100 µg/mL; MIC (Aureobasidium pullulans): 10 µg/mL; MIC (Sacharomyces cerevisiae): > 100 µg/mL
11 | CCCCCCCCCCCCCC[P+](CCCC)(CCCC)CCCC [Example 1, Tri-n-butyl-n-tetradecylphosphonium tetrafluoborate] |  | 50 µg/mL |  |  | 50 µg/mL | 10 µg/mL | 10 µg/mL | MIC against fungi, strain D (Chaetomium globosum; [4]): 10 µg/mL; MIC against fungi, strain F (Coniophora puteana [1]; [4]): 10 µg/mL; growth by barnacles (BA), rating (barnacles; Vinyl/rosin 1:1 paint with additive, without additive BA 0): 10; growth by barnacles (BA), rating (barnacles; Vinyl/rosin 2:1 paint with additive, without additive BA 5): 8; growth by hydroids (HY), rating (hydroids; Vinyl/rosin 1:1 paint with additive, without additive HY 0): 4; growth by hydroids (HY), rating (hydroids; Vinyl/rosin 2:1 paint with additive, without additive HY 5): 8; algae growth after 6 weeks ([2]; 0,1 % by weight in film): 4 (inhibiting aerola around the film <5 mm); algae growth after 3 weeks ([2]; 0,1 % by weight in film): 4 (inhibiting aerola around the film <5 mm); algae growth after 6 weeks ([2]; 0,5 % by weight in film): 4 (inhibiting aerola around the film <5 mm); algae growth after 3 weeks ([2]; 0,5 % by weight in film): 4 (inhibiting aerola around the film <5 mm); algae growth after 6 weeks ([2]; 1 % by weight in film): 4 (inhibiting aerola around the film <5 mm); algae growth after 3 weeks ([2]; 1 % by weight in film): 4 (inhibiting aerola around the film <5 mm); Effective concentration (Coniophora puteana [3]): 0.5-1.0%; Effective concentration (Poria placenta): 1.0-2.0%; Take-up (limit of the activity) (Gleophyllum trabeum): ≤ 1.0 kg/m^3; Effective concentration (Gleophyllum trabeum; isopropanol/water (1:1)): ≤ 0.2%; activity against wood-destroying fungi (wood-destroying fungi): highly effective
